The text below walks through data of article PMC7765409 (International Journal of Molecular Sciences, 2020).

Series [1] has as its system oleic acid-induced lipid droplet accumulation in hiPSC-Hep. In words: oleic acid-induced lipid droplet accumulation in hiPSC-Hep. It is filed as cell-based, human. Conditions: exogenous oleic acid. The method, then:
(§1) A monolayer of hiPSC-Hep, with hepatocyte-like morphology, gene expression and function, was used as a cell model for induction of steatosis and high-content analysis to detect neutral lipid droplet accumulation and inhibition. […] Incubation of the cells with a saturated fluorescently labeled fatty acid analog confirmed localization into neutral lipid vacuoles (Supplementary Figure S1C–F).

The test system of series [2] is palmitic acid-induced lipid accumulation in hiPSC-Hep. As to the kind of experiment: palmitic acid-induced lipid accumulation in hiPSC-Hep. To be noted: exogenous palmitic acid. The series is classed as cell-based, human. Here is the method:
as §1

For series [3], the system named is lipid droplet accumulation in TG/FA-treated hiPSC-Hep. In words: hiPSC-Hep ER-stress (TG/FA) induced lipid droplet accumulation high-content assay, integrated spot signal (BODIPY 493/503). It is filed as cell-based, human. Conditions: for IC50: Homo sapiens, cells pre-treated 24 h and co-treated additional 18 h with TG/FA. The method, then: Cryopreserved hiPSC-derived hepatocytes (iCell Hepatocytes 2.0; Cellular Dynamics International Madison, WI) plated at a density of 36 K/well in 384-well on collagen I coated Corning Biocoat 384-well plates (BD Biosciences, 101306), were cultured to promote hepatic differentiation and maturation into hepatic-like cells as previously described. Hepatocytes were plated according to the manufacturer’s protocol in a volume of 50 µL/well using BioTek^TM Microflo^TM select dispenser (#7170011, BioTek Instruments) for high-throughput and high-content analysis assay (HT/HCA) drug discovery. After plating cells were cultured according to vendor specifications in a cell culture incubator at 37 °C, 5% CO2 for 3–4 h. Then, 40 µL spent medium was aspirated using multi-channel automated pipette handling system (Integra ViaFlo 96/384) and replaced with 40 µL (80% exchange) of fresh plating medium. Approximately 24 h post-plating 80% of medium was replaced every day thereafter. At day 5 of differentiation, 40 µL/well spent medium was replaced with maintenance medium (MM) consisting of William’s E medium (Thermo Fisher Scientific) supplemented with 0.1 µM dexamethasone and hepatocyte maintenance supplement pack (Thermo Fisher Scientific) for an additional 2–3 days before HCA. The overview of automated HT system for hiPSC-derived hepatocytes differentiation, staining and image analysis for phenotypic screening is depicted in Figure S2. Primary screening hit confirmation and dose response studies were performed on different batches of hiPSC-derived hepatocytes.
To induce hepatic triglycerides (TAG) accumulation, before staining, cells were treated with 20 μL of 2× FA mixture, consisting of different proportions of oleic acid (OA-BSA, 25 µM, Sigma, #O3008), palmitic acid (PA-BSA, 200 µM, Agilent Technologies, #102720100) and thapsigargin (TG, 1 µM, Abcam, #120286) with a total volume of 40 μL/well. The TG/FA mixture was dispensed with BioTek^TM Microflo^TM select dispenser (#7170011, BioTek Instruments) and incubated for 18 h. Next, to label TAG accumulation stored into cytoplasmic lipid droplets, upon treatment, living cells were washed two times with warm Dulbecco’s Phosphate-Buffered Saline 1X (PBS, Corning, #21-031CV) with a handheld 384-channel electronic pipette device and then incubated for 15 min with a lipophilic dye, BODIPY 493/503 (8 ug/mL Life technologies, #D3922-green), in PBS at 37 °C. BODIPY (493/503) has become the standard dye utilized by scientists to study lipid droplets in live cells. After three washes with PBS cells were fixed with 4% paraformaldehyde methanol-free (PFA, Electron Microscopy Science, #15710) in PBS for 15 min at room temperature (RT). Cell health was monitored by Hoechst 33342 (10 ug/mL, Molecular Probe, #H21492) staining in PBS for nuclear count. After TAG staining the 384-assay plates were loaded in an automated confocal microscope with Opera High Content Imaging System (PerkinElmer, Waltham, MA, USA). Dyes were excited and images were captured on the Hoechst 3342 and Alexa Fluor 488 channels and signals were collected with a long pass filter 410 and 505 nm, for nuclei and TAG, respectively, at objective 20× air objective for HCA. To capture enough cells (>600) for the analysis, eight fields per well were imaged. Hoechst 33342 fluorescence was used to identify the nuclear region and cell counts. To assess intracellular fat deposits, BODIPY 493/503 fluorescence intensity was measured inside the cytoplasm region.
For the HCA screen, compounds tested for their inhibitory effects, were used as single dose at a 10 μM final concentration of compound in DMSO in each well (0.1% DMSO) in 20 μL of maintenance medium. Prior to compound addition, 30 µL/well of medium was removed from hiPSC-Hep cells screening plates with ViaFlo ([…]). Pre-spotted 80 nL of 10 mM compound were diluted to 20 μM (0.2% DMSO) in 40 μL of maintenance medium in the source 384-well plate. […]

For a further series, the system named is FXR target genes. In words: transcriptomic (RNA-seq) analysis of OCA pre-incubated TG/FA-treated hiPSC-Hep. It is filed as cell-based, human. To be noted: TG/FA+OCA vs TG/FA. Here is the method:
The phenotypic assay was measured and quantified by BODIPY 493/503-stained neutral lipid droplets multiplexed with Hoechst dye to detect viable cell count, as shown by the process in Supplementary Figure S2. Obeticholic acid (OCA), a clinically advanced therapeutic and farnesoid X receptor (FXR) agonist evaluated in phase III trials for the treatment of NASH [40], was used as an inhibitor control of lipid accumulation (Figure 1A). […] Our results are in accordance with therapeutic plasma concentrations of OCA (0.290 µM) and with studies performed in a human liver in vitro system (0.5 µM). […] FXR target genes, including fibroblast growth factor 19 (FGF19), solute carrier family 51 subunit Beta (SLC51B), cytochrome P450 7A1 (CYP7A1) and perilipin 1 (PLIN1) are regulated by OCA under our treatment conditions.
Z’ = 1 − (3 SD of sample group + 3 SD of negative control)/(mean of sample group−mean of negative control). FA/TG-treated wells were defined as general sample group and BSA-treated wells were defined as negative controls for calculating Z’-factor. In our assay, the Z’ criteria were as follows: Z’ = 0.5–1.0 corresponds to an excellent assay; Z’ = 0–0.5 corresponds to a suboptimal assay; Z’ < 0 corresponds to an unsuccessful assay. Percent inhibition of lipid accumulation was calculated based on the positive (BSA-treated) and negative (FA/TG-treated) controls on each plate: % inhibition = 100 * [(compound value–AVEneg)/(AVEpos–AVEneg)]. RNA-seq data were analyzed by iPathwayGuide (Advaita Bioinformatics: http://www.advaitabio.com/ipathwayguide.html) as described in [35]. Differences between two groups were analyzed using Student’s t-tests. Fold-change expression values obtained from RT-qPCR were analyzed by one-way analysis of variance (ANOVA) followed by post hoc comparisons of group means with the Tukey’s multiple comparison tests at an overall confidence level of 95% using Prism software (GraphPad).

The next series has as its system DGAT2 mRNA. Also noted: method as in PMID 30254132. Conditions: after 4 and 18 h treatment with thapsigargin and free-fatty acids; cited from earlier work.
On the set-up of series [4]: method as in PMID 29226620. Conditions: cited from earlier work.

Like-named read-outs stand apart in the source and are kept apart here.

`CCC/C=C/C/C=C/C=C/C=N/NN=O` [Triacsin C]: the “inhibition of oleic acid-induced lipid droplet accumulation” value in series [1] is recorded as “fully inhibits”; in series [1] (listed as triacsin C), “completely inhibits”. In series [2], the “inhibition of palmitic acid-induced lipid accumulation” value is on record as “did not inhibit”.

Take `CC[C@H]1[C@@H](O)[C@@H]2[C@H](CC[C@]3(C)[C@@H]([C@H](C)CCC(=O)O)CC[C@@H]23)[C@@]2(C)CC[C@@H](O)C[C@@H]12` [OCA, Obeticholic acid]: in series [3] (read-out: half maximal inhibitory concentration (IC50) for reduction of lipid accumulation), the IC50 was found to be 630 nM. The IC50 in series [3] (read-out: pIC50 for reduction of lipid accumulation (converted)) is 631 nM. In series [3] (OCA at 20 µM in TG/FA-treated cells vs BSA-treated control), the “lipid content of lipid droplet-stained cells” value is on record as “reduced lipid content to control levels”. Further, in the series on FXR target genes, the CYP7A1 gene regulation result was “downregulation”, the FGF19 gene regulation entry is “upregulation”, the PLIN1 gene regulation result is given as “upregulation” and the SLC51B gene regulation result is given as “downregulation”. In addition, in the series on DGAT2 mRNA, the “effect on DGAT2 expression” value is “significantly inhibited”. Also, in series [4], the therapeutic plasma concentrations is on record as 0.290 µM.
